System: SARS-CoV-2
Experiment: microbe, parasite or virus in culture
Conditions: Severe acute respiratory syndrome coronavirus 2, Vero C1008, 48 h

Row | SMILES | IC50 | IC50 (read-out: pIC50 (converted))
1 | COc1cc(C(=O)C(=O)N(C)[C@@H](Cc2ccc(Cl)cc2)C(=O)N(Cc2ccccc2)C(CCc2ccncc2)CCc2ccncc2)cc(OC)c1OC [TIMCODAR] | > 20 µM | > 20 µM
2 | Cc1cc(/N=C(\Nc2nccs2)NC2CCCCC2)c2ccccc2n1 [TIMEGADINE] | > 20 µM | > 20 µM
3 | O=C(CCCN1CCC(n2c(=S)[nH]c3ccccc32)CC1)c1ccc(F)cc1 [TIMIPERONE] | > 20 µM | > 20 µM
4 | CC(C)(C)NC[C@H](O)COc1nsnc1N1CCOCC1 [TIMOLOL] | > 20 µM | > 20 µM
5 | c1ccc2c(SC3=NCCN3)c[nH]c2c1 [TINAZOLINE] | > 20 µM | > 20 µM
6 | CCS(=O)(=O)CCn1c([N+](=O)[O-])cnc1C [TINIDAZOLE] | > 20 µM | > 20 µM
7 | CCOC(=O)c1c(N)sc2c1CCN(Cc1ccccc1)C2 [TINORIDINE] | > 20 µM | > 20 µM
8 | Clc1ccc(C(Cn2ccnc2)OCc2ccsc2Cl)c(Cl)c1 (centres undefined) [TIOCONAZOLE] | > 20 µM | > 20 µM
9 | CC(S)C(=O)NCC(=O)O (centres undefined) [TIOPRONIN] | > 20 µM | > 20 µM
10 | C/N=C(/NC#N)NCCSCc1csc(NC(=N)N)n1 [TIOTIDINE] | > 20 µM | > 20 µM
11 | C[N+]1(C)[C@@H]2C[C@@H](OC(=O)C(O)(c3cccs3)c3cccs3)C[C@H]1[C@@H]1O[C@@H]12 [TIOTROPIUM] | > 20 µM | > 20 µM
12 | CCOC(=O)C(=O)Nc1nc(-c2ccc(OC)cc2)cs1 [TIOXAMAST] | > 20 µM | > 20 µM
13 | O=c1oc2cc(O)ccc2s1 [TIOXOLONE] | > 20 µM | > 20 µM
14 | Cc1cnc2c(c1)CCCC2C(N)=S (centres undefined) [TIQUINAMIDE] | > 20 µM | > 20 µM
15 | CCOC(=O)Nc1ccc2c(c1)N(C(=O)CN(C)C)c1ccccc1CC2 [TIRACIZINE] | > 20 µM | > 20 µM
16 | O=C(Cc1ccc(-c2ccc(OCCN3CCOCC3)cc2)cn1)NCc1ccccc1 [TIRBANIBULIN] | > 20 µM | > 20 µM
17 | COc1cc2nccc(Oc3ccc(NC(=O)Nc4cc(C)on4)c(Cl)c3)c2cc1OC [TIVOZANIB] | > 20 µM | > 20 µM
18 | COc1ccc2c(c1)C=C1Cn3c-2c(C2CCCCC2)c2ccc(cc23)C(=O)NS(=O)(=O)N(C)CCOCCN(C)C1=O [TMC-647055] | > 20 µM | > 20 µM
19 | Cc1cccc(C)c1NC(=O)C(C)N (centres undefined) [TOCAINIDE] | > 20 µM | > 20 µM
20 | CCOC(=O)NNc1nncc2ccccc12 [TODRALAZINE] | > 20 µM | > 20 µM
21 | C[C@@H]1CCN(C(=O)CC#N)C[C@@H]1N(C)c1ncnc2[nH]ccc12 [TOFACITINIB] | > 20 µM | > 20 µM
22 | CNCCOC(c1ccccc1)c1ccccc1C (centres undefined) [TOFENACIN] | > 20 µM | > 20 µM
23 | Cc1ccccc1OCC(O)CNCCOc1ccc(C(N)=O)cc1 (centres undefined) [TOLAMOLOL] | > 20 µM | > 20 µM
24 | Cc1ccc(S(=O)(=O)NC(=O)NN2CCCCCC2)cc1 [TOLAZAMIDE] | > 20 µM | > 20 µM

Row | SMILES | IC50 | IC50 (read-out: pIC50 (converted))
25 | c1ccc(CC2=NCCN2)cc1 [TOLAZOLINE] | > 20 µM | > 20 µM
26 | CCCCNC(=O)NS(=O)(=O)c1ccc(C)cc1 [TOLBUTAMIDE] | > 20 µM | > 20 µM
27 | Cc1ccc(C(=O)c2cc(O)c(O)c([N+](=O)[O-])c2)cc1 [TOLCAPONE] | > 20 µM | > 20 µM
28 | Cc1cccc(N(C)C(=S)Oc2ccc3c(c2)C2CCC3C2)c1 (centres undefined) [TOLCICLATE] | > 20 µM | > 20 µM
29 | Cc1c(Cl)cccc1Nc1ccccc1C(=O)O [TOLFENAMIC ACID] | > 20 µM | > 20 µM
30 | Cc1cccc(Oc2cnc(=O)[nH]c2)c1 [TOLIMIDONE] | > 20 µM | > 20 µM
31 | Cc1cccc(OCC(O)CNC(C)C)c1 (centres undefined) [TOLIPROLOL] | > 20 µM | > 20 µM
32 | Cc1ccc(C(=O)c2ccc(CC(=O)O)n2C)cc1 [TOLMETIN] | > 20 µM | > 20 µM
33 | Cc1cccc(N(C)C(=S)Oc2ccc3ccccc3c2)c1 [TOLNAFTATE] | > 20 µM | > 20 µM
34 | Cc1ccc(NC2=NCCN2)c(Cl)c1 [TOLONIDINE] | > 20 µM | > 20 µM
35 | Cc1cccc(N2CC(CO)OC2=O)c1 (centres undefined) [TOLOXATONE] | > 20 µM | > 20 µM
36 | Cc1ccc(O)c([C@H](CCN(C(C)C)C(C)C)c2ccccc2)c1 [TOLTERODINE] | > 20 µM | > 20 µM
37 | Cc1cc(-n2c(=O)[nH]c(=O)n(C)c2=O)ccc1Oc1ccc(SC(F)(F)F)cc1 [TOLTRAZURIL] | > 20 µM | > 20 µM
38 | Cc1ccccc1C(=O)Nc1ccc(C(=O)N2CCCC(O)c3cc(Cl)ccc32)c(C)c1 (centres undefined) [TOLVAPTAN] | > 20 µM | > 20 µM
39 | C[C@H]1CC[C@]2(NC1)O[C@H]1C[C@H]3[C@@H]4CC[C@H]5C[C@@H](O)CC[C@]5(C)[C@H]4CC[C@]3(C)[C@H]1[C@@H]2C [TOMATIDINE] | > 20 µM | > 20 µM
40 | CN(C)c1cccc2c(S(=O)(=O)Nc3ccc(NC(=O)C(C)(C)CO)cc3)cccc12 [TOMEGLOVIR] | > 20 µM | > 20 µM
41 | CCCc1c(OCCCCc2nnn[nH]2)ccc(C(C)=O)c1O [TOMELUKAST] | > 20 µM | > 20 µM
42 | CC1(C)O[C@@H]2[C@@H](CO[C@@]3(COS(N)(=O)=O)OC(C)(C)O[C@@H]23)O1 [TOPIRAMATE] | > 20 µM | > 20 µM
43 | CCOC(=O)N1c2ccc(C(F)(F)F)cc2[C@@H](N(Cc2cc(C(F)(F)F)cc(C(F)(F)F)c2)C(=O)OC)C[C@H]1CC [TORCETRAPIB] | > 20 µM | > 20 µM
44 | Cc1cccc(Nc2ccncc2S(=O)(=O)NC(=O)NC(C)C)c1 [TORSEMIDE] | > 20 µM | > 20 µM
45 | Cc1cc(Nc2cc(N3CCN(C)CC3)nc(Sc3ccc(NC(=O)C4CC4)cc3)n2)n[nH]1 [TOZASERTIB] | > 20 µM | > 20 µM
46 | CC(CN(C)C)CN1c2ccccc2OCOc2ccc(Cl)cc21 (centres undefined) [TRABOXOPINE] | > 20 µM | > 20 µM
47 | CCCCNc1c(C(=O)OCC)c(C)nc2c1cnn2CC [TRACAZOLATE] | > 20 µM | > 20 µM
48 | CC(=O)Nc1cccc(-n2c(=O)n(C3CC3)c(=O)c3c(Nc4ccc(I)cc4F)n(C)c(=O)c(C)c32)c1 [TRAMETINIB] | > 20 µM | > 20 µM

Row | SMILES | IC50 | IC50 (read-out: pIC50 (converted))
49 | CCOC(=O)[C@H](CCc1ccccc1)N[C@@H](C)C(=O)N1[C@H](C(=O)O)C[C@H]2CCCC[C@@H]21 [TRANDOLAPRIL] | > 20 µM | > 20 µM
50 | NC[C@H]1CC[C@H](C(=O)O)CC1 [TRANEXAMIC ACID] | > 20 µM | > 20 µM
51 | O=C(O)c1cc(=O)c2ccccc2[nH]1 [TRANSTORINE] | > 20 µM | > 20 µM
52 | C[C@@H]([C@@H](O)c1ccc(O)cc1)N1CCC(O)(c2ccccc2)CC1 [TRAXOPRODIL] | > 20 µM | > 20 µM
53 | O=c1n(CCCN2CCN(c3cccc(Cl)c3)CC2)nc2ccccn12 [TRAZODONE] | > 20 µM | > 20 µM
54 | CC1Oc2ccccc2CC1N(C)C (centres undefined) [TREBENZOMINE] | > 20 µM | > 20 µM
55 | OC[C@H]1O[C@H](O[C@H]2O[C@H](CO)[C@@H](O)[C@H](O)[C@H]2O)[C@H](O)[C@@H](O)[C@@H]1O [TREHALOSE] | > 20 µM | > 20 µM
56 | Cn1c(=O)cc(N2CCC[C@@H](N)C2)n(Cc2cc(F)ccc2C#N)c1=O [TRELAGLIPTIN] | > 20 µM | > 20 µM
57 | CS(=O)(=O)OC[C@H](O)[C@@H](O)COS(C)(=O)=O [TREOSULFAN] | > 20 µM | > 20 µM
58 | CCCCC[C@H](O)CC[C@@H]1[C@H]2Cc3cccc(OCC(=O)O)c3C[C@H]2C[C@H]1O [TREPROSTINIL] | > 20 µM | > 20 µM
59 | CC1=C(/C=C/C(C)=C/C=C/C(C)=C/C(=O)O)C(C)(C)CCC1 [TRETINOIN] | > 20 µM | > 20 µM
60 | CC(C)(C)C(=O)C(Oc1ccc(Cl)cc1)n1cncn1 (centres undefined) [TRIADIMEFON] | > 20 µM | > 20 µM
61 | CC1(C)O[C@@H]2C[C@H]3[C@@H]4CCC5=CC(=O)C=C[C@]5(C)[C@@]4(F)[C@@H](O)C[C@]3(C)[C@]2(C(=O)CO)O1 [TRIAMCINOLONE ACETONIDE] | > 20 µM | > 20 µM
62 | CC(=O)OCC(=O)[C@@]1(O)[C@H](OC(C)=O)C[C@H]2[C@@H]3CCC4=CC(=O)C=C[C@]4(C)[C@@]3(F)[C@@H](O)C[C@@]21C [TRIAMCINOLONE DIACETATE] | > 20 µM | > 20 µM
63 | CC(C)(C)CC(=O)OCC(=O)[C@@]12OC(C)(C)O[C@@H]1C[C@H]1[C@@H]3CCC4=CC(=O)C=C[C@]4(C)[C@@]3(F)[C@@H](O)C[C@@]12C [TRIAMCINOLONE HEXACETONIDE] | > 20 µM | > 20 µM
64 | C[C@]12C=CC(=O)C=C1CC[C@H]1[C@@H]3C[C@@H](O)[C@](O)(C(=O)CO)[C@@]3(C)C[C@H](O)[C@@]12F [TRIAMCINOLONE] | > 20 µM | > 20 µM
65 | Cc1nnc2n1-c1ccc(Cl)cc1C(c1ccccc1Cl)=NC2 [TRIAZOLAM] | > 20 µM | > 20 µM
66 | O=C(Nc1ccc(Br)cc1)c1cc(Br)cc(Br)c1O [TRIBROMSALAN] | > 20 µM | > 20 µM
67 | COP(=O)(OC)C(O)C(Cl)(Cl)Cl (centres undefined) [TRICHLORFON] | > 20 µM | > 20 µM
68 | NS(=O)(=O)c1cc2c(cc1Cl)NC(C(Cl)Cl)NS2(=O)=O (centres undefined) [TRICHLORMETHIAZIDE] | > 20 µM | > 20 µM
69 | CSc1nc2cc(Cl)c(Oc3cccc(Cl)c3Cl)cc2[nH]1 [TRICLABENDAZOLE] | > 20 µM | > 20 µM
70 | O=C(Nc1ccc(Cl)cc1)Nc1ccc(Cl)c(Cl)c1 [TRICLOCARBAN] | > 20 µM | > 20 µM
71 | CC[N+](CC)(CC)CCC(O)(c1ccccc1)C1CCCCC1 (centres undefined) [TRIDIHEXETHYL] | > 20 µM | > 20 µM
72 | NCCNCCNCCN [TRIENTINE] | > 20 µM | > 20 µM
